From patent publication US11998539B2, “Substituted aminoquinolones as DGKalpha inhibitors for immune activation” (Bayer Aktiengesellschaft, priority 2019, dated 2024)

Experiments:
[1] = biological target: T1, DGKα (Homo sapiens (Human), UniProt P23743); details: prior art; cited from earlier work
Target sequence in this assay (P23743 whole entry, species assumed): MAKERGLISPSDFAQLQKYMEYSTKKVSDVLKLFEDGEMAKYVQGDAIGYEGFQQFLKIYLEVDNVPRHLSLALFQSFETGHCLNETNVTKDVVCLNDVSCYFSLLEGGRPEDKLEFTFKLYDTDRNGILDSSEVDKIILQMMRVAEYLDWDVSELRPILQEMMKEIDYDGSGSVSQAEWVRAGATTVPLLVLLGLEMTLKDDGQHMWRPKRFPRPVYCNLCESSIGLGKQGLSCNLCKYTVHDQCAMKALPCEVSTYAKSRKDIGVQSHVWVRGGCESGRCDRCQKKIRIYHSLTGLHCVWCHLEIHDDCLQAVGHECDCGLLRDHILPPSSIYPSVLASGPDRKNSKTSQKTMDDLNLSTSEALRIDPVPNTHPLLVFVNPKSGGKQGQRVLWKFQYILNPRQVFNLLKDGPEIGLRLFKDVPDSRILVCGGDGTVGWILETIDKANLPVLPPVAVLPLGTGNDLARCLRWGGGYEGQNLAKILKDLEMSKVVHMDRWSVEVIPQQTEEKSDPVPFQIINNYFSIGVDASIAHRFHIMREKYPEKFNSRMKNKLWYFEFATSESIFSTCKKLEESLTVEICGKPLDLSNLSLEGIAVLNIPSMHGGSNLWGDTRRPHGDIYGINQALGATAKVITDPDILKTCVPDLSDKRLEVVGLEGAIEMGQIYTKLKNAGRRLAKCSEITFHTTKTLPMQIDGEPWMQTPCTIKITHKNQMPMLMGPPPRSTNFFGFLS

[2] = biological target: T1, DGKα; assay: Human DGKα kinase activity inhibition assay (ADP-Glo); type: biochemical; details: recombinant full-length human DGKα, 55 μM ATP, 7 μM 1,2-dioleoyl-sn-glycerol, read-out: IC50 values of examples in in vitro human DGKa kinase activity inhibition assays
Procedure, shortened: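 Activity was measured as ADP production, detected by luciferase luminescence after removal of unused ATP. The enzyme was baculovirus-expressed full-length human DGKα with a C-terminal FLAG tag. The substrate was 1,2-dioleoyl-sn-glycerol in detergent micelles, and compounds came from 100× DMSO solutions.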
Target sequence in this assay (P23743 other isoform, or with tags, fused parts or gaps): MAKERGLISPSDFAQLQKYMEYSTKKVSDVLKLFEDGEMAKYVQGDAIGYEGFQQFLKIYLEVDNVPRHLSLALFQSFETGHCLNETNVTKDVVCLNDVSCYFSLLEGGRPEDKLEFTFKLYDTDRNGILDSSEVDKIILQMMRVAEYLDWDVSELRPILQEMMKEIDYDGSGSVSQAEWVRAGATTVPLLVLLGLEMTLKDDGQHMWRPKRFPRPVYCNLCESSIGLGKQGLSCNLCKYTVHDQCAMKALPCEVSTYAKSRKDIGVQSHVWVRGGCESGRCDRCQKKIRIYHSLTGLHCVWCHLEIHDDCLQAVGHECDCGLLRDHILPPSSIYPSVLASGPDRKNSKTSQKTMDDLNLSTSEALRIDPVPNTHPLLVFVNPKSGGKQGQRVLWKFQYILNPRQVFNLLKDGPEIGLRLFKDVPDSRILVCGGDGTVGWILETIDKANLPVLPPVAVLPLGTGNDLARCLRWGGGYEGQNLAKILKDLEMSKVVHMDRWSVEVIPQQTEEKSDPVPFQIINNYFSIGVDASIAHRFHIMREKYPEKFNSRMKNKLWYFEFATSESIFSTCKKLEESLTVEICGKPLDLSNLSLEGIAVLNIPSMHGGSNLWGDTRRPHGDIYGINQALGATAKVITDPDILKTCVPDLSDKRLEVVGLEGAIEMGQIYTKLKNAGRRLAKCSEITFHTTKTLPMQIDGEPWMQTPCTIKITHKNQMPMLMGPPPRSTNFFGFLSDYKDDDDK

[3] = test system: intracranially injected GBM tumors; details: concurrent administration; Dominguez et al. 2013; cited from earlier work

Row | SMILES | IC50 [2] | also measured
1 | Cc1ccc2c(C(=O)CN3CCN(C(=O)c4ccco4)CC3)c(C)[nH]c2c1 [AMB639752] |  | inhibitory activity on DGKα [1]: micromolar
2 | O=C1/C(=C\C=C\c2ccco2)SC(=S)N1NS(=O)(=O)c1ccccc1 [CU-3] |  | inhibitory activity on DGKα [1]: sub-micromolar
3 | Cc1cc2c(N3CCC(c4nc(-c5ccccc5C)no4)CC3)c(C#N)c(=O)n(C)c2cc1NCCO [Example 559, 7-[(2-hydroxyethyl)amino]-1,6-dimethyl-4-{4-[3-(2-methylphenyl)-1,2,4-oxadiazol-5-yl]piperidin-1-yl}-2-oxo-1,2-dihydroquinoline-3-carbonitrile] | 1.7 nM | 
4 | Cc1cc2c(N3CCC(c4ccn(-c5ccccc5C)n4)CC3)c(C#N)c(=O)n(C)c2cc1Br [Example 560, 7-bromo-1,6-dimethyl-4-{4-[1-(2-methylphenyl)-1H-pyrazol-3-yl]piperidin-1-yl}-2-oxo-1,2-dihydroquinoline-3-carbonitrile] | 105 nM | 
5 | Cc1cc2c(N3CCC(c4ccn(-c5ccccc5C)n4)CC3)c(C#N)c(=O)n(C)c2cc1NCCO [Example 561, 7-[(2-hydroxyethyl)amino]-1,6-dimethyl-4-{4-[1-(2-methylphenyl)-1H-pyrazol-3-yl]piperidin-1-yl}-2-oxo-1,2-dihydroquinoline-3-carbonitrile] | 1.4 nM | 
6 | Cc1ccc2oc(C3CCN(c4c(C(N)=O)c(=O)n(C)c5cc(F)c(Br)cc45)CC3)nc2c1 [Example 563, 6-bromo-7-fluoro-1-methyl-4-[4-(5-methyl-1,3-benzoxazol-2-yl)piperidin-1-yl]-2-oxo-1,2-dihydroquinoline-3-carboxamide] | 1.7 nM | 
7 | Cc1ccc2oc(C3CCN(c4c(C(N)=O)c(=O)n(C)c5cc(F)c(C#N)cc45)CC3)nc2c1 [Example 564, 6-cyano-7-fluoro-1-methyl-4-[4-(5-methyl-1,3-benzoxazol-2-yl)piperidin-1-yl]-2-oxo-1,2-dihydroquinoline-3-carboxamide] | 3.3 nM | 
8 | COc1cc2c(cc1Cl)c(N1CCC(c3nc4cc(C)ccc4o3)CC1)c(C#N)c(=O)n2C [Example 566, 6-chloro-7-methoxy-1-methyl-4-[4-(5-methyl-1,3-benzoxazol-2-yl)piperidin-1-yl]-2-oxo-1,2-dihydroquinoline-3-carbonitrile] | 0.3 nM | 
9 | Cc1ccc2oc(C3CCN(c4c(C#N)c(=O)n(C)c5cc(O)c(Cl)cc45)CC3)nc2c1 [Example 567, 6-chloro-7-hydroxy-1-methyl-4-[4-(5-methyl-1,3-benzoxazol-2-yl)piperidin-1-yl]-2-oxo-1,2-dihydroquinoline-3-carbonitrile] | 2 nM | 
10 | Cc1cc2c(N3CCC(c4cnn(-c5ccccc5C)c4)CC3)c(C#N)c(=O)n(C)c2cc1Br [Example 579, 7-bromo-1,6-dimethyl-4-{4-[1-(2-methylphenyl)-1H-pyrazol-4-yl]piperidin-1-yl}-2-oxo-1,2-dihydroquinoline-3-carbonitrile] | 61 nM | 
11 | Cc1nc2sccn2c(=O)c1CCN1CCC(=C(c2ccccc2)c2ccc(F)cc2)CC1 [Example R59022] |  | growth of intracranially injected GBM tumors [3]: decreased growth
12 | Cc1nc2sccn2c(=O)c1CCN1CCC(=C(c2ccc(F)cc2)c2ccc(F)cc2)CC1 [Ritanserin] |  | inhibitory activity on DGKα [1]: comparable activity
